In article PMC4067310, “From Pan-Reactive KV7 Channel Opener to Subtype Selective Opener/Inhibitor by Addition of a Methyl Group” (PLoS ONE, 2014):

Legend:
KV7.4-L305V = molecular target: T1, KV7.4-L305V (Homo sapiens, UniProt P56696, L305V); assay: Two-electrode voltage-clamp of mutant KV7.4-L305V in Xenopus laevis oocytes; format: cell-based; conditions: 10 µM SMB-1, +50 mV, n = 6; read-out: current amplitude, % of control
T1 construct: expressed in transfected cells; host or cells: Xenopus laevis oocytes injected with cRNA (pGEM-HE vector)
T1 sequence (P56696 1-695 L305V): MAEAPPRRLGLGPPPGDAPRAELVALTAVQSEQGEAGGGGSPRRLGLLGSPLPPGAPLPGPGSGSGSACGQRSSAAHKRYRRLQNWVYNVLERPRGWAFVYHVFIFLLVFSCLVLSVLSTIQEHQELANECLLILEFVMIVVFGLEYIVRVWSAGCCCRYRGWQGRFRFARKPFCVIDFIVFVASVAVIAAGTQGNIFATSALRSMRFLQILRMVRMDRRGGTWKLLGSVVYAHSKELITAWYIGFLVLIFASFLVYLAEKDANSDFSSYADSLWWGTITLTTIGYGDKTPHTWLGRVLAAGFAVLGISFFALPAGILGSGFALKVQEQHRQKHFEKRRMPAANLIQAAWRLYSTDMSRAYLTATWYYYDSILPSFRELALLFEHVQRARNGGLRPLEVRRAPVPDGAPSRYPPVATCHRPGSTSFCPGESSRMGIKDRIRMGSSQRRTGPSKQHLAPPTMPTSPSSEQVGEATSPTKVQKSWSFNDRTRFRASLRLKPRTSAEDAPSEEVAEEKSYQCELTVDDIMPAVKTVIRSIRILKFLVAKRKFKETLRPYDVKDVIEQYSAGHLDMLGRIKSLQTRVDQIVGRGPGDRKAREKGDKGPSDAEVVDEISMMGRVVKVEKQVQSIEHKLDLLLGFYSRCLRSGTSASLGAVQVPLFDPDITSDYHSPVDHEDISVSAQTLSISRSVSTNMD
Protocol: (§1) Point mutations were introduced using mutated oligonucleotide extension (PfuTurbo Polymerase, Stratagene, La Jolla, CA, USA) from a plasmid template harboring the cDNA of interest, digested with DpnI (Fermentas, St. Leon-Roth, Germany) and transformed into E.coli XL1 Blue cells. The construct was verified by complete DNA sequencing of the cDNA insert. cRNA was prepared from linearized human wild-type (WT) and mutant KV7 channels in the pGEM-HE vector using the T7 m-Message Machine kit (Ambion, Austin, TX, USA) according to the manufacturer's instructions.
(§2) Extraction of Xenopus laevis oocytes and injection of cRNA was performed as described previously. Oocytes were kept in Modified Barth's Saline (in mM: 88 NaCl, 1 KCl, 2.4 NaHCO3, 0.41 CaCl2, 0.82 MgSO4, 0.3 Ca(NO3)2, 15 HEPES, pH 7.4 supplemented with 100 U/mL penicillin and 100 µg/mL streptomycin) at 18°C, and currents were recorded after 2-7 days. […]
(§3) KV7 currents in Xenopus laevis oocytes were recorded using two-electrode voltage-clamp at room temperature in Ringer buffer (in mM: 115 NaCl, 2.5 KCl, 1.8 CaCl2, 0.1 MgCl2, 10 HEPES, pH 7.4) as described previously. Data was acquired using pCLAMP 10.2 software (Molecular Devices, CA, USA) and analyzed using pCLAMP 10.2 and GraphPad Prism 4.0 (GraphPad Software Inc., CA, USA). […]

KV7.2-L299V = molecular target: T2, KV7.2-L299V (Homo sapiens, UniProt O43526, L299V); assay: Two-electrode voltage-clamp of mutant KV7.2-L299V in Xenopus laevis oocytes; format: cell-based; conditions: 10 µM SMB-1, +50 mV, n = 4; read-out: current amplitude, % of control
T2 construct: expressed in transfected cells; host or cells: Xenopus laevis oocytes injected with cRNA (pGEM-HE vector)
T2 sequence (O43526 whole entry L299V): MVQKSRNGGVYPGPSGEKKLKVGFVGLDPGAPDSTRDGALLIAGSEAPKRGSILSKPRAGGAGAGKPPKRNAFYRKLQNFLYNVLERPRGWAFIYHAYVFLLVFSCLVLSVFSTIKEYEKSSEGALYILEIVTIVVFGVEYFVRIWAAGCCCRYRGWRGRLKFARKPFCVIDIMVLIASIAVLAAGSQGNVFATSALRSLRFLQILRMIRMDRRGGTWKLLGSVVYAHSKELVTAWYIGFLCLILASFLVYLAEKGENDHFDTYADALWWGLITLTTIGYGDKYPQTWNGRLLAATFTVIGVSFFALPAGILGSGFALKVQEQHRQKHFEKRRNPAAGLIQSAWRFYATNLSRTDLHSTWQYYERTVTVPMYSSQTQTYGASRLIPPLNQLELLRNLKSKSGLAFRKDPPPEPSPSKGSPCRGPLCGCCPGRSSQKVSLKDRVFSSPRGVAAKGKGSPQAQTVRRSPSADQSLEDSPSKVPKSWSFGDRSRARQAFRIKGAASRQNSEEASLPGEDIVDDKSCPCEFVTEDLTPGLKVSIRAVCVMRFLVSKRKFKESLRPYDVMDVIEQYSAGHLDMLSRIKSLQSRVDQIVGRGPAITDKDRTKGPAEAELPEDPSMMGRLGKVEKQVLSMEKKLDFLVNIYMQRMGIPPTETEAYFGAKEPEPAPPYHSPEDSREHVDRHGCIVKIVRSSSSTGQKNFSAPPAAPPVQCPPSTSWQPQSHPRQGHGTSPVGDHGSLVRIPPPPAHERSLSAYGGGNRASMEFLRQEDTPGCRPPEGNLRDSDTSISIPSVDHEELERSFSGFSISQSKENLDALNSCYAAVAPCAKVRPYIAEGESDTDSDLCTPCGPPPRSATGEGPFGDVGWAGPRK
Protocol: as §1, §2, §3

[1] = Free fraction by equilibrium dialysis, rat plasma; format: in vitro ADME; conditions: equilibrium dialysis 37°C 5 h, mean ± S.E.M., n = 3
Protocol: (§4) The bidirectional permeability (Papp) of SMB-1 was examined in an MDCK cell system expressing human MDR1 [ABCB1, P-glycoprotein (P-gp)] as described previously. Permeation of the test compound from apical (A) to basal (B) direction or B to A direction was determined in triplicate over a 150-min incubation at 37°C. The efflux ratio was calculated as the ratio between Papp (B to A) and Papp (A to B). Free fraction of SMB-1 was determined using a standard equilibrium dialysis methodology with freshly isolated rat brain homogenate or plasma. Equilibrium dialysis was performed by incubating at 37°C for 5 h in triplicates.

[2] = Free fraction by equilibrium dialysis, rat brain homogenate; format: in vitro ADME; conditions: equilibrium dialysis 37°C 5 h, mean ± S.E.M., n = 3
Protocol: as §4

C[C@@H](c1ccc2c(c1)N(CC1CC1)CCO2)N(C)C(=O)/C=C/c1ccccc1F [SMB-1, (E)-N-[(S)-1-(4-Cyclopropylmethyl-3,4-dihydro-2H-1,4-benzoxazin-6-yl)-ethyl]-3-(2-fluoro-phenyl)-N-methyl-acrylamide]
remaining activity at 10 µM (KV7.4-L305V): 101 ± 10.3% | remaining activity at 10 µM (KV7.2-L299V): 69.3 ± 5.6% | fraction unbound at 5 h [1]: 0.006 ± 0.004 | fraction unbound at 5 h [2]: 0.001 ± 0.001
